Measurements: patent US6565892B2, “Synergistic fungicidal composition comprising a compound analogous to strobilurin” (Rhone-Poulenc Agrochimie, priority 1995, dated 2003)
In brackets after ≈: the same amount, converted by molar mass. Where two headings read alike, the source gives them in different places.

System: Plasmopara viticola
Assay: In vivo test with respect to Plasmopara viticola (grape downy mildew) on Chardonnay vine cuttings, preventive treatment 72 hours before infection
Conditions: in Vitis vinifera, spray 72 h before infection, reading 7 days after infection, read-out: dose of A alone which it is necessary to apply for the destruction of 50% of the parasite
Method: A suspension comprising the compounds A and B in a liquid mixture composed of a surface-active agent (oleate of polyoxyethylenated derivative of sorbitan) and water is prepared.
The component B is fosetyl-Al; the A/B ratio is 0.05, 0.07 and 0.1 (B/A=20, 15 and 10).
Vine (Vitis vinifera) cuttings, variety Chardonnay, are grown in small pots. When these seedlings are 2 months old (8- to 10-leaf stage, height of 10 to 15 cm), they are treated by spraying with the above suspension.
After 72 hours, each seedling is infected by spraying with an aqueous suspension of spores of Plasmopara viticola, which suspension is obtained from sporulated leaves infected 7 days previously. These spores are suspended at a concentration of 100,000 units per cm^3 of inoculum. Infection is carried out by spraying the inoculum at the undersurface of the leaves.
The infected seedlings are then incubated for seven days at 20-22° C. at 90-100% relative humidity under natural light.
Reading is carried out 7 days after infection, in comparison with the control seedlings.
The results obtained are reported in the form of points, corresponding to 50% destruction of the parasite, and are plotted on a Tammes isobole diagram which contains, on the abscissa, the doses of A expressed in ppm (mg/l) and, on the ordinate, the doses of B, also in ppm (mg/l). […]

EC50 (A = SSF-129 alone) [mg/L]	SMILES	EC50 (A = ICIA5504 alone) [mg/L]
	CO/C=C(/C(=O)OC)c1ccccc1Oc1cc(Oc2ccccc2C#N)ncn1 [ICIA5504, methyl (E)-2-{2-[6-(2-cyanophenoxy)pyrimidin-4-yloxy]phenyl}-3-methoxyacrylate]	1.5 (≈ 3.72 µM)
4.6 (≈ 14.1 µM)	CNC(=O)/C(=N/OC)c1ccccc1COc1cc(C)ccc1C [SSF-129, N-methyl-(E)-methoxyimino[2-(2,5-dimethylphenoxymethyl)phenyl]acetamide]	
